Reference: ChEMBL document CHEMBL1201862, “PubChem BioAssay data set” (2004)
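48-hour exposure; five concentrations; linearly interpolated endpoints. The concentration for 50% growth inhibition is given as GI50.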 Calls of active or inactive are those of the source. No stated cut-off is given here; in the data, active = GI50 up to about 1.1 µM and inactive = higher.

Tests used:
Assay in all cases: NCI-60 cell line screen, 48 h
SK-MEL-2 = test system: SK-MEL-2
SW-620 = test system: SW-620
A498 = test system: A498
MDA-N = test system: MDA-N
OVCAR-3 = test system: OVCAR-3
NCI/ADR-RES = test system: NCI/ADR-RES
OVCAR-5 = test system: OVCAR-5
EKVX = test system: EKVX
HT-29 = test system: HT-29
HCC 2998 = test system: HCC 2998
HCT-15 = test system: HCT-15
SK-MEL-28 = test system: SK-MEL-28
SF-295 = test system: SF-295
SF-539 = test system: SF-539
CAKI-1 = test system: CAKI-1
BT-549 = test system: BT-549
PC-3 = test system: PC-3
MOLT-4 = test system: MOLT-4
UACC-62 = test system: UACC-62
SF-268 = test system: SF-268
DU-145 = test system: DU-145
ACHN = test system: ACHN
K562 = test system: K562
KM12 = test system: KM12
SK-OV-3 = test system: SK-OV-3
RPMI-8226 = test system: RPMI-8226
NCI-H23 = test system: NCI-H23
MDA-MB-435 = test system: MDA-MB-435
OVCAR-8 = test system: OVCAR-8
A549 = test system: A549
CCRF-CEM = test system: CCRF-CEM
Hs-578T = test system: Hs-578T
NCI-H460 = test system: NCI-H460
HOP-62 = test system: HOP-62
T47D = test system: T47D
SNB-19 = test system: SNB-19
MCF7 = test system: MCF7
UACC-257 = test system: UACC-257
U-251 = test system: U-251
SN12C = test system: SN12C
Malme-3M = test system: Malme-3M
NCI-H226 = test system: NCI-H226
786-0 = test system: 786-0
M14 = test system: M14
MDA-MB-231 = test system: MDA-MB-231
UO-31 = test system: UO-31
HCT-116 = test system: HCT-116
SNB-75 = test system: SNB-75
OVCAR-4 = test system: OVCAR-4
COLO 205 = test system: COLO 205
SK-MEL-5 = test system: SK-MEL-5
NCI-H522 = test system: NCI-H522
RXF 393 = test system: RXF 393
HOP-92 = test system: HOP-92
IGROV-1 = test system: IGROV-1
TK-10 = test system: TK-10
HL-60 = test system: HL-60
LOX IMVI = test system: LOX IMVI

## CCOc1ccc2c(c1)/C(=C(\C(Cl)=C(Cl)Cl)[N+](=O)[O-])N2
SK-MEL-2
  GI50: > 100 µM (inactive)
SW-620
  GI50: > 100 µM (inactive)
A498
  GI50: > 100 µM (inactive)
MDA-N
  GI50: > 100 µM (inactive)
OVCAR-3
  GI50: > 100 µM (inactive)
NCI/ADR-RES
  GI50: > 100 µM (inactive)
OVCAR-5
  GI50: > 100 µM (inactive)
EKVX
  GI50: 37.6 µM (inactive)
HT-29
  GI50: > 100 µM (inactive)
HCC 2998
  GI50: > 100 µM (inactive)
HCT-15
  GI50: > 100 µM
SK-MEL-28
  GI50: > 100 µM (inactive)
SF-295
  GI50: > 100 µM (inactive)
SF-539
  GI50: > 100 µM (inactive)
CAKI-1
  GI50: > 100 µM (inactive)
BT-549
  GI50: 28.2 µM (inactive)
PC-3
  GI50: > 100 µM (inactive)
MOLT-4
  GI50: > 100 µM (inactive)
UACC-62
  GI50: > 100 µM (inactive)
SF-268
  GI50: 66.2 µM (inactive)
DU-145
  GI50: > 100 µM (inactive)
ACHN
  GI50: > 100 µM (inactive)
K562
  GI50: 51.6 µM (inactive)
KM12
  GI50: > 100 µM (inactive)
SK-OV-3
  GI50: > 100 µM (inactive)
RPMI-8226
  GI50: 69.3 µM (inactive)
NCI-H23
  GI50: > 100 µM (inactive)
MDA-MB-435
  GI50: > 100 µM (inactive)
OVCAR-8
  GI50: > 100 µM (inactive)
A549
  GI50: > 100 µM (inactive)
CCRF-CEM
  GI50: 47.9 µM (inactive)
Hs-578T
  GI50: > 100 µM (inactive)
NCI-H460
  GI50: > 100 µM (inactive)
HOP-62
  GI50: > 100 µM (inactive)
T47D
  GI50: 48.9 µM (inactive)
SNB-19
  GI50: > 100 µM (inactive)
MCF7
  GI50: > 100 µM (inactive)
UACC-257
  GI50: > 100 µM (inactive)
U-251
  GI50: > 100 µM (inactive)
SN12C
  GI50: > 100 µM (inactive)
Malme-3M
  GI50: > 100 µM (inactive)
NCI-H226
  GI50: > 100 µM (inactive)
786-0
  GI50: > 100 µM (inactive)
M14
  GI50: > 100 µM (inactive)
MDA-MB-231
  GI50: > 100 µM (inactive)
UO-31
  GI50: > 100 µM (inactive)
HCT-116
  GI50: > 100 µM (inactive)
SNB-75
  GI50: > 100 µM (inactive)
OVCAR-4
  GI50: 33.2 µM (inactive)
COLO 205
  GI50: > 100 µM (inactive)

## Cn1c2ccccc2c(=NNc2cccc(C(=O)O)c2)c2ccccc21
SK-MEL-2
  GI50: 16.8 µM (inactive)
SW-620
  GI50: 5.64 µM (inactive)
SK-MEL-5
  GI50: 14.7 µM (inactive)
NCI-H522
  GI50: 5.05 µM (inactive)
MDA-N
  GI50: 16.1 µM (inactive)
OVCAR-3
  GI50: 3.57 µM (inactive)
NCI/ADR-RES
  GI50: 24.3 µM (inactive)
OVCAR-5
  GI50: 14.4 µM (inactive)
EKVX
  GI50: 5.57 µM (inactive)
HT-29
  GI50: 3.1 µM (inactive)
HCC 2998
  GI50: 3.3 µM (inactive)
HCT-15
  GI50: 15.3 µM
SK-MEL-28
  GI50: 19.2 µM (inactive)
SF-295
  GI50: 16 µM (inactive)
SF-539
  GI50: 19.2 µM (inactive)
CAKI-1
  GI50: 25.1 µM (inactive)
BT-549
  GI50: 7.59 µM (inactive)
PC-3
  GI50: 4.92 µM (inactive)
MOLT-4
  GI50: 3.97 µM (inactive)
UACC-62
  GI50: 16.9 µM (inactive)
SF-268
  GI50: 10.9 µM (inactive)
RXF 393
  GI50: 6.38 µM (inactive)
DU-145
  GI50: 11.9 µM (inactive)
ACHN
  GI50: 5.85 µM (inactive)
K562
  GI50: 3.37 µM (inactive)
KM12
  GI50: 23.3 µM (inactive)
SK-OV-3
  GI50: 14.8 µM (inactive)
RPMI-8226
  GI50: 5.96 µM (inactive)
NCI-H23
  GI50: 9.95 µM (inactive)
HOP-92
  GI50: 14.8 µM (inactive)
MDA-MB-435
  GI50: 13.3 µM (inactive)
OVCAR-8
  GI50: 5.77 µM (inactive)
A549
  GI50: 5.75 µM (inactive)
IGROV-1
  GI50: 17.8 µM (inactive)
TK-10
  GI50: 15.5 µM (inactive)
CCRF-CEM
  GI50: 6.41 µM (inactive)
Hs-578T
  GI50: 17.8 µM (inactive)
NCI-H460
  GI50: 4.86 µM (inactive)
HOP-62
  GI50: 12.7 µM (inactive)
T47D
  GI50: 5.79 µM (inactive)
SNB-19
  GI50: 6.84 µM (inactive)
MCF7
  GI50: 3.4 µM (inactive)
UACC-257
  GI50: 28.5 µM (inactive)
U-251
  GI50: 4.69 µM (inactive)
SN12C
  GI50: 6.55 µM (inactive)
Malme-3M
  GI50: 20.1 µM (inactive)
NCI-H226
  GI50: 12.1 µM (inactive)
786-0
  GI50: 9.79 µM (inactive)
M14
  GI50: 19.6 µM (inactive)
MDA-MB-231
  GI50: 11 µM (inactive)
UO-31
  GI50: 14.3 µM (inactive)
HCT-116
  GI50: 4.89 µM (inactive)
SNB-75
  GI50: 23.9 µM (inactive)
HL-60
  GI50: 11.3 µM (inactive)
LOX IMVI
  GI50: 5.05 µM (inactive)
OVCAR-4
  GI50: 12.4 µM (inactive)
COLO 205
  GI50: 12.2 µM (inactive)

## Nc1n[n+](CC(=O)c2ccccc2)c2sc(-c3ccccc3)nn12
SK-MEL-2
  GI50: > 100 µM (inactive)
SW-620
  GI50: 36.8 µM (inactive)
SK-MEL-5
  GI50: 48.6 µM (inactive)
NCI-H522
  GI50: 95.5 µM (inactive)
A498
  GI50: > 100 µM (inactive)
MDA-N
  GI50: 84.7 µM (inactive)
OVCAR-3
  GI50: > 100 µM (inactive)
NCI/ADR-RES
  GI50: > 100 µM (inactive)
OVCAR-5
  GI50: > 100 µM (inactive)
EKVX
  GI50: > 100 µM (inactive)
HT-29
  GI50: 55 µM (inactive)
HCT-15
  GI50: 75.2 µM
SK-MEL-28
  GI50: > 100 µM (inactive)
SF-295
  GI50: 64.7 µM (inactive)
SF-539
  GI50: 74.8 µM (inactive)
CAKI-1
  GI50: > 100 µM (inactive)
BT-549
  GI50: > 100 µM (inactive)
PC-3
  GI50: 73.8 µM (inactive)
MOLT-4
  GI50: 90.6 µM (inactive)
UACC-62
  GI50: 13.9 µM (inactive)
SF-268
  GI50: 18.8 µM (inactive)
RXF 393
  GI50: > 100 µM (inactive)
DU-145
  GI50: > 100 µM (inactive)
ACHN
  GI50: > 100 µM (inactive)
K562
  GI50: 82.4 µM (inactive)
KM12
  GI50: 46.1 µM (inactive)
SK-OV-3
  GI50: > 100 µM (inactive)
RPMI-8226
  GI50: 60 µM (inactive)
NCI-H23
  GI50: > 100 µM (inactive)
MDA-MB-435
  GI50: 27.7 µM (inactive)
OVCAR-8
  GI50: 78.2 µM (inactive)
A549
  GI50: > 100 µM (inactive)
IGROV-1
  GI50: > 100 µM (inactive)
TK-10
  GI50: > 100 µM (inactive)
CCRF-CEM
  GI50: 45.7 µM (inactive)
Hs-578T
  GI50: > 100 µM (inactive)
NCI-H460
  GI50: > 100 µM (inactive)
HOP-62
  GI50: > 100 µM (inactive)
T47D
  GI50: > 100 µM (inactive)
SNB-19
  GI50: > 100 µM (inactive)
MCF7
  GI50: 51.4 µM (inactive)
UACC-257
  GI50: > 100 µM (inactive)
U-251
  GI50: > 100 µM (inactive)
SN12C
  GI50: > 100 µM (inactive)
Malme-3M
  GI50: > 100 µM (inactive)
NCI-H226
  GI50: > 100 µM (inactive)
786-0
  GI50: > 100 µM (inactive)
M14
  GI50: 61.2 µM (inactive)
MDA-MB-231
  GI50: > 100 µM (inactive)
UO-31
  GI50: 79.3 µM (inactive)
HCT-116
  GI50: 44.2 µM (inactive)
SNB-75
  GI50: > 100 µM (inactive)
LOX IMVI
  GI50: 54 µM (inactive)
OVCAR-4
  GI50: > 100 µM (inactive)
COLO 205
  GI50: > 100 µM (inactive)
